Assay results published in PMC11601558, “SLC6A19 inhibition facilitates urinary neutral amino acid excretion and lowers plasma phenylalanine” (JCI Insight, 2024).
Values joined by “and” are separate entries in the source; they are usually repeats but may differ in a detail not shown here. Equal values may be shown once.

Assays:
[1] = test system: T1, SLC7A5 co-expressed with SLC3A2; assay: SLC7A5 isoleucine transport assay; assay type: cell-based, human; conditions: for SLC7A5 transport (Fig S2 curve point): technical replicates
T1 construct: V5; expressed in transfected cells; host or cells: Flp-In T-Rex 293 cells (Thermo Fisher), SLC7A5 tetracycline-induced
Description: Supplementary Materials and Methods
Flp-In T-Rex 293 cells (Thermo Fisher) were engineered to induciblyexpress either V5-tagged human SLC1A5, SLC6A8 or SLC7A5 co-expressed with myc-DDK-tagged SLC3A2. Cells expressing SLC 1A5 or SLC6A8 were maintained in either DMEM or DMEM/F12 media supplemented with 10% FBS, 100 U/mL penicillin, 100 μg/mL streptomycin, 200 μg/mL hygromycin, and 10 μg/mL blasticidin. For cells expressing SLC7A5/SLC3A2, the media was additionally supplemented with 300 μg/mL geneticin. All cell lines were maintained at 37°C and 5% CO2. For transport experiments, all cell lines were plated in poly-D-lysine-coated 96-well plates at a density of 35,000 cells/well. One day after plating, expression of SLC1A5, SLC6A8 or SLC7A5 was induced by adding tetracycline at a concentration of 1 μg/mL. Cells were induced for 24 h prior to transport assays. […]
SLC7A5 isoleucine transport assay
Following a 24 h induction with tetracycline, cells were washed with sodium -free LCIS (20 mM HEPES, 140 mM choline chloride, 2.5 mM KCl, 1.8 mM CaCl2, 1 mM MgCl2, pH 7.4) before JNT-517 was added in 8-point concentration-response diluted in sodium-free LCIS. JPH203 (Selleckchem) was used as a positive control (34)at a concentration of 1.3 μM and DMSO was used as a negative control. Cells were incubated for 30 min at room temperature before a mixture of unlabeled L-isoleucine (Millipore Sigma) and 10 μCi/mL 4,5 -3H(N)-labeled L-isoleucine (American Radiolabeled Chemicals) was added at a concentration of 50 μM. After a 2 min incubation at room temperature, cells were washed once with sodium -free LCIS and lysed in scintillation fluid (PerkinElmer). The uptake of radioactive substrate was measured on a Microbeta2 microplate counter (PerkinElmer). […]

healthy volunteers = assay: Phase 1 safety and tolerability, multiple ascending dose (MAD) cohorts; conditions: for Any CTCAE Grade ≥ 3 / Any TEAE / Death / SAE / TEAE Anxiety / TEAE Contusion / TEAE Dehydration / TEAE Dizziness / TEAE Drug withdrawal headache / TEAE Dysmenorrhea / TEAE Flushing / TEAE Headache / TEAE Musculoskeletal pain / TEAE Myalgia / TEAE Nausea / TEAE Oropharyngeal pain / TEAE Rash / TEAE Skin injury / TEAE Somnolence / TEAE Swelling of eyelid / TEAE Thirst / TEAE Vascular access site pain / TEAEs leading to IP discontinuation: n = 6
Description: Eligible participants included males and females 18 to 55 years of age, medically healthy with no clinically notable medical history, a BMI of 18–40 kg/m^2 and total body weight > 50 kg (110 lbs), and who have been nonsmokers for at least 2 weeks prior to and throughout dosing.
In both SAD and MAD studies, safety and tolerability were assessed by AE monitoring, clinical laboratory tests (blood chemistries, hematology, coagulation, serology, and urinalysis), vital signs, 12-lead electrocardiograms, and physical examinations. Safety assessment and corresponding samples were collected on day-1 prior to dosing and days 1, 2, 3, and 8 for the SAD study or throughout the 14 days of dosing and day 21 for the MAD study.

## NC(=O)N1CCC[C@@H](N(C(=O)NCc2ccc(OC(F)(F)F)cc2F)C2CC2)C1 [JNT-517]
[1]; 0.0160037 uM
  SLC7A5 transport (Fig S2 curve point): 105 and 96.7
[1]; 0.048011 uM
  SLC7A5 transport (Fig S2 curve point): 106 and 104
[1]; 0.144033 uM
  SLC7A5 transport (Fig S2 curve point): 99.2 and 100
[1]; 0.432099 uM
  SLC7A5 transport (Fig S2 curve point): 95.2 and 94.5
[1]; 1.2963 uM
  SLC7A5 transport (Fig S2 curve point): 99.2 and 103
[1]; 3.88889 uM
  SLC7A5 transport (Fig S2 curve point): 101 and 96.2
[1]; 11.6667 uM
  SLC7A5 transport (Fig S2 curve point): 108 and 105
[1]; 35 uM
  SLC7A5 transport (Fig S2 curve point): 133 and 120
[1]; concentrations up to 35 μM
  inhibition of SLC7A5: did not inhibit
Healthy volunteers; MAD 25 mg BID
  Any CTCAE Grade ≥ 3: 0 Number (%)
  Any TEAE: 5 (83.3) Number (%)
  Death: 0 Number (%)
  SAE: 0 Number (%)
  TEAE Anxiety: 0 Number (%)
  TEAE Contusion: 0 Number (%)
  TEAE Dehydration: 0 Number (%)
  TEAE Dizziness: 0 Number (%)
  TEAE Drug withdrawal headache: 1 (16.7) Number (%)
  TEAE Dysmenorrhea: 0 Number (%)
  TEAE Flushing: 0 Number (%)
  TEAE Headache: 3 (50) Number (%)
  TEAE Musculoskeletal pain: 1 (16.7) Number (%)
  TEAE Myalgia: 0 Number (%)
  TEAE Nausea: 0 Number (%)
  TEAE Oropharyngeal pain: 1 (16.7) Number (%)
  TEAE Rash: 0 Number (%)
  TEAE Skin injury: 1 (16.7) Number (%)
  TEAE Somnolence: 1 (16.7) Number (%)
  TEAE Swelling of eyelid: 1 (16.7) Number (%)
  TEAE Thirst: 1 (16.7) Number (%)
  TEAE Vascular access site pain: 0 Number (%)
  TEAEs leading to IP discontinuation: 1 (16.7) Number (%)
Healthy volunteers; MAD 75 mg BID
  Any CTCAE Grade ≥ 3: 0 Number (%)
  Any TEAE: 2 (33.3) Number (%)
  Death: 0 Number (%)
  SAE: 0 Number (%)
  TEAE Anxiety: 1 (16.7) Number (%)
  TEAE Contusion: 0 Number (%)
  TEAE Dehydration: 0 Number (%)
  TEAE Dizziness: 1 (16.7) Number (%)
  TEAE Drug withdrawal headache: 0 Number (%)
  TEAE Dysmenorrhea: 1 (16.7) Number (%)
  TEAE Flushing: 1 (16.7) Number (%)
  TEAE Headache: 1 (16.7) Number (%)
  TEAE Musculoskeletal pain: 0 Number (%)
  TEAE Myalgia: 0 Number (%)
  TEAE Nausea: 1 (16.7) Number (%)
  TEAE Oropharyngeal pain: 0 Number (%)
  TEAE Rash: 1 (16.7) Number (%)
  TEAE Skin injury: 0 Number (%)
  TEAE Somnolence: 0 Number (%)
  TEAE Swelling of eyelid: 0 Number (%)
  TEAE Thirst: 0 Number (%)
  TEAE Vascular access site pain: 1 (16.7) Number (%)
  TEAEs leading to IP discontinuation: 0 Number (%)
Healthy volunteers; MAD 150 mg QD
  Any CTCAE Grade ≥ 3: 0 Number (%)
  Any TEAE: 4 (66.7) Number (%)
  Death: 0 Number (%)
  SAE: 0 Number (%)
  TEAE Anxiety: 0 Number (%)
  TEAE Contusion: 1 (16.7) Number (%)
  TEAE Dehydration: 1 (16.7) Number (%)
  TEAE Dizziness: 0 Number (%)
  TEAE Drug withdrawal headache: 0 Number (%)
  TEAE Dysmenorrhea: 0 Number (%)
  TEAE Flushing: 0 Number (%)
  TEAE Headache: 2 (33.3) Number (%)
  TEAE Musculoskeletal pain: 0 Number (%)
  TEAE Myalgia: 1 (16.7) Number (%)
  TEAE Nausea: 0 Number (%)
  TEAE Oropharyngeal pain: 0 Number (%)
  TEAE Rash: 0 Number (%)
  TEAE Skin injury: 0 Number (%)
  TEAE Somnolence: 0 Number (%)
  TEAE Swelling of eyelid: 0 Number (%)
  TEAE Thirst: 0 Number (%)
  TEAE Vascular access site pain: 0 Number (%)
  TEAEs leading to IP discontinuation: 0 Number (%)
Healthy volunteers; MAD cohorts, all JNT-517 doses (11 of 18)
  incidence of AE: 61.1%
